The values below come from patent US6946137B2, “Methods for the controlled delivery of pharmacologically active compounds” (IDEXX Laboratories, Inc., priority 2001, dated 2005).

Where a name gives a salt, the structure may show the parent alone. Read-outs that look alike come from different tables or passages of the source.

The nature of data set [1]: in vitro release from dialysis bag into saline. The data set is classed as physicochemical.
The conditions of data set [2]: stated as background, no test described, cited from earlier work.
The next data set has as its system cats. The conditions noted are these: previous data; cited from earlier work.

Consider `CNCCC(Oc1ccc(C(F)(F)F)cc1)c1ccccc1` (centres unmarked) [fluoxetine base formulation, Fluoxetine], for which the “time over which the formulation was released in vitro” value in data set [1] (100 mg/ml in 10% propylene glycol in glycerol formal, dialysis technique) was “about 160 hrs”. As to `CN(C)C1C(O)=C(C(N)=O)C(=O)[C@@]2(O)C(O)=C3C(=O)c4c(O)cccc4[C@@](C)(O)C3C(O)C12` (some centres unmarked) [hydrochloride salt of oxytetracycline, Oxytetracycline], in data set [2], the “solubility in water / aqueous solutions (in words), known forms” value (“solubility in water / aqueous solutions” for short) was “readily soluble in water”. On to `COCCc1ccc(OCC(O)CNC(C)C)cc1` (centres unmarked) [metoprolol base, Metoprolol], for which the “in vitro release rate (in words)” value in data set [1] (dialysis bag into saline) was “diffused off rapidly”.

Take `COCCc1ccc(OCC(O)CNC(C)C)cc1` (centres unmarked) [metoprolol succinate, Metoprolol]: the “solubility in water / aqueous solutions” value in data set [2] is given as “highly soluble in water”.

Consider `CC[C@H]1OC(=O)C[C@@H](O)[C@H](C)[C@@H](OC2OC(C)C(O)C(N(C)C)C2O)[C@@H](CCN2C[C@@H](C)C[C@H](C)C2)C[C@@H](C)C(=O)/C=C/C(C)=C/[C@@H]1COC1OC(C)C(O)C(OC)C1OC` (some centres unmarked) [phosphate salt of tilmicosin, Tilmicosin], for which, in data set [2] (listed as tilmicosin phosphate salt), the “solubility in water / aqueous solutions” value is recorded as “highly soluble”. For the same compound, the “dosage that could be fatal to cats” value with cats is 25 mg/kg. Consider `CC[C@H]1OC(=O)C[C@@H](O)[C@H](C)[C@@H](OC2OC(C)C(O)C(N(C)C)C2O)[C@@H](CCN2C[C@@H](C)C[C@H](C)C2)C[C@@H](C)C(=O)/C=C/C(C)=C/[C@@H]1COC1OC(C)C(O)C(OC)C1OC` (some centres unmarked) [tilmicosin basic form, Tilmicosin], for which, in data set [2], the “solubility in water / aqueous solutions” value was “moderately soluble”. As to `CC[C@H]1OC(=O)C[C@@H](O)[C@H](C)[C@@H](OC2OC(C)C(O)C(N(C)C)C2O)[C@@H](CCN2C[C@@H](C)C[C@H](C)C2)C[C@@H](C)C(=O)/C=C/C(C)=C/[C@@H]1COC1OC(C)C(O)C(OC)C1OC` (some centres unmarked) [tilmicosin chloride salt, Tilmicosin], the “solubility in water / aqueous solutions” value in data set [2] is “highly soluble”.
